Test results: PubChem BioAssay (NCI)
Several values for one entry are separate records, joined by “and”; a condition that tells them apart may be missing. Equal entries are not always repeated.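 Where inhibition never reached the appropriate level, the endpoint shown equals the highest concentration tested. Otherwise, values were interpolated linearly from a five-concentration, 48-hour dose response in 96-well plates. Here, GI50 denotes the concentration required for 50% inhibition of growth. TGI marks complete inhibition of growth.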

What follows are compounds tested on MOLT-4 leukemia (assay: growth of human tumour cells (NCI), 48 h).
`C=C(C)C(OC)C(O)CC1(C)CC(O)CC(C)(C2CCC3OC(C4(C)CCC(Br)C(C)(C)O4)CCC3(C)O2)O1` (centres undefined) was tested, and the GI50 was 13.5 µM and the TGI was 29.4 µM. With `Cc1cc(-c2nc(C(=O)Nc3cc4oc(N5CCOCC5)nc4nc3N3CC[C@@H](O)C3)co2)ccn1` the GI50 was 38.3 µM and the TGI was > 100 µM. `COc1cc2c(cc1OCCCCN1CCN(CC(=O)Nc3ccc(Cl)cc3C(=O)c3ccccc3Cl)CC1)N=CC1CCCN1C2=O` (centres undefined) showed a GI50 of 0.209 µM and a TGI of 0.512 µM. In the case of `Cc1ccc(Cl)c2c(N=Nc3ccccc3[N+](=O)[O-])c(O)[nH]c12`, the TGI is reported as > 100 µM. With `FC(F)(F)c1cccc(Nc2nc(-c3ccccc3)nc3ncccc23)c1` the GI50 was 3.11 µM and the TGI was 9.04 µM. `OC1CSSC1Cn1cnc2c(Nc3ccc(OCc4cccc(F)c4)c(Cl)c3)ncnc21` (centres undefined) showed a GI50 of 0.441 µM and a TGI of 1.38 µM. `C=CCOc1ccc2c(C)cc(=O)oc2c1C` was tested, and the TGI was > 100 µM. For `Nc1c(C(=O)c2cccc(CCS(N)(=O)=O)c2)cnn1-c1ccc(F)cc1`, the GI50 was > 25 µM and the TGI was > 25 µM. `OCc1cc2ccccc2c2c3c(ccc12)OCO3` gave a GI50 of 28.5 µM and a TGI of 82.3 µM. Work on `COc1cnc2c(c1)C(=O)c1c-2n(CCCN2CCOCC2)c(=O)c2cc(F)ccc12` yielded a GI50 of 0.106 µM and a TGI of 0.637 µM. For `C[C@@H](Oc1cc(-n2cnc3ccc(CN4CCN(C)CC4)cc32)sc1C(N)=O)c1ccccc1C(F)(F)F`, the GI50 was < 0.0107 µM and 0.0112 µM and the TGI was 4.71 µM and 2.76 µM. `CCOC1Oc2ccccc2C(=O)/C1=C/Nc1ccc(C(C)=O)cc1` (centres undefined) gave a GI50 of 15.8 µM and a TGI of 53.3 µM. Work on `O=C(CCNC12CC3CC(CC(C3)C1)C2)c1ccccc1` yielded a TGI of 35.3 µM. With `COc1cccc(-c2cc(-c3cccc(NS(C)(=O)=O)c3)nc(N)c2C#N)c1O` the GI50 was 0.349 µM and the TGI was > 100 µM. `CCN1CCN(Cc2ccc(NC(=O)c3cccc(C#Cc4cccc5[nH]nc(N)c45)c3)cc2C(F)(F)F)CC1` showed a GI50 of 0.227 µM and a TGI of 1.16 µM. In the case of `Cc1ccsc1C(=S)Nc1ccc(Cl)c(/C=N/OC(C)(C)C)c1`, the TGI is reported as > 100 µM. `CC(C)=CCC\C(C)=C/C=C/C(C)=C\C=C\C(C)=C/C=C/C=C(C)\C=C\C=C(C)/C=C/C=C(/C)CCC=C(C)C` was tested, and the TGI was > 100 µM. Work on `NC(N)=NS(=O)(=O)c1ccc(Nc2c3ccccc3nc3c(C(=O)NCCO)cccc23)cc1` yielded a GI50 of 4.78 µM. `COc1cccc(C2c3cc4c(cc3OC(C)(N3CCCC3)C2C)OCO4)c1O` (centres undefined) was tested, and the TGI was > 54.6 µM. With `COC(=O)CC[N+]1=CCC(c2ccccc2)(c2ccccc2)O1` the TGI was > 100 µM. With `O=C1NC(=NCCc2cccc(F)c2)S/C1=C\c1ccc2ncccc2c1` the GI50 was 8.72 µM and the TGI was > 25 µM. `COc1cc(/C=N\NC(=O)CN2CCN(c3cc4c(cc3F)c(=O)c(C(=O)N/N=C/c3cc(OC)c(OC)c(OC)c3)cn4C3CC3)CC2)cc(OC)c1OC` was tested, and the GI50 was 0.331 µM and the TGI was > 100 µM. For `OCCN(CCO)c1ncnc2c1ncn2Cc1ccc(CCl)cc1`, the GI50 was 8.54 µM and the TGI was 52.4 µM. Work on `Cc1ccc2c(C)c3c(ccc4ccccc43)c[n+]2c1` yielded a GI50 of 5.54 µM and a TGI of 28.4 µM. `Cc1ccc(CN2CCC(C(=O)Nc3ccc(-c4cc5ccccc5[nH]4)cc3)CC2)o1` was tested, and the GI50 was > 100 µM and the TGI was > 100 µM. With `C=CC(=O)Nc1cc(Nc2ncc(C(=O)OC(C)C)c(-c3cn(C)c4ccccc34)n2)c(OC)cc1N(C)CCN(C)C` the GI50 was 2.9 µM and the TGI was 11.4 µM. `O=C(Nc1ccc(F)cc1)Nc1ccc(Cl)c([N+](=O)[O-])c1` was tested, and the GI50 was 3.13 µM and the TGI was 92.9 µM. For `CCOC(=O)Cn1c(C(F)(F)F)nc2nc(Cl)c(Cl)nc21`, the TGI was 97.6 µM. With `CC1CCc2nc[nH]c(=O)c21` (centres undefined) the GI50 was > 100 µM and the TGI was > 100 µM.
